Measured values taken from article PMC12155096 (International Journal of Molecular Sciences, 2025).
pIC50: −log10 of the molar value.

How the values were obtained:
human CYP2C9 = human CYP2C9 (Homo sapiens, UniProt P11712)
CYP3A4 = CYP3A4 (Homo sapiens, UniProt P08684); assay: in vitro
human CYP1A2 = molecular target: T1, human CYP1A2 (Homo sapiens, UniProt P05177)
T1 sequence (P05177 1-516): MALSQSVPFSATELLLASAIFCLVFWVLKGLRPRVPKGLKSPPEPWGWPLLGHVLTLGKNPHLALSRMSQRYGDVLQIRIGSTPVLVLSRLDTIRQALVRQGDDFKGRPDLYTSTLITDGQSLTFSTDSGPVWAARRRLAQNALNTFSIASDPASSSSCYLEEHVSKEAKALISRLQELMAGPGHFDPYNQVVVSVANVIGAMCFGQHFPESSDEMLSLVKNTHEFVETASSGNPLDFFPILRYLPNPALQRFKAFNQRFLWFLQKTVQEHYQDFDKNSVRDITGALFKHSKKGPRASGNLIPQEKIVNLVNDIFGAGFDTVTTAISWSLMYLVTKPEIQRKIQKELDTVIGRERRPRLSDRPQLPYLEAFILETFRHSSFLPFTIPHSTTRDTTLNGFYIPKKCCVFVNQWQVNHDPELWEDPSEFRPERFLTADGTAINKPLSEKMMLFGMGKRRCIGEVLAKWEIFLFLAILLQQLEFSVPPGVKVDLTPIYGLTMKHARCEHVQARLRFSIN

[1] = molecular target: Photinus pyralis (firefly) luciferase (Photinus pyralis, UniProt P08659); assay: biochemical; format: biochemical
Photinus pyralis (firefly) luciferase, sequence (P08659 whole entry): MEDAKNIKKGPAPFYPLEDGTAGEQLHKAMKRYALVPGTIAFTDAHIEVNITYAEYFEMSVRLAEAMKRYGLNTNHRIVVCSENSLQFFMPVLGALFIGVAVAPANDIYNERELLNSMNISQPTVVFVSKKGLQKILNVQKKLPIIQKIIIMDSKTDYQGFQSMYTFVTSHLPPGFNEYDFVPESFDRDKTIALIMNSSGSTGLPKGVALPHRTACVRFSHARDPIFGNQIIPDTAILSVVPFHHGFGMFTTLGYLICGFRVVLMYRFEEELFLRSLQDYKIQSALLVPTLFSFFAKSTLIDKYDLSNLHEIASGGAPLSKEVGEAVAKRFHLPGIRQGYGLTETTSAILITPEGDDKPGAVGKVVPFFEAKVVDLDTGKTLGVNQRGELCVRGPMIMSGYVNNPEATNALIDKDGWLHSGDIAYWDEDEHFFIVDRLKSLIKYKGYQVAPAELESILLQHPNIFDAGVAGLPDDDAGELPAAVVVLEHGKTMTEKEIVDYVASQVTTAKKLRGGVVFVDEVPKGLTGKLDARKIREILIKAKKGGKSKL

human CYP2D6 = human CYP2D6 (Homo sapiens, UniProt P10635); assay: biochemical; settings: CYP2D6 IC50
human CYP2D6, sequence (P10635 whole entry): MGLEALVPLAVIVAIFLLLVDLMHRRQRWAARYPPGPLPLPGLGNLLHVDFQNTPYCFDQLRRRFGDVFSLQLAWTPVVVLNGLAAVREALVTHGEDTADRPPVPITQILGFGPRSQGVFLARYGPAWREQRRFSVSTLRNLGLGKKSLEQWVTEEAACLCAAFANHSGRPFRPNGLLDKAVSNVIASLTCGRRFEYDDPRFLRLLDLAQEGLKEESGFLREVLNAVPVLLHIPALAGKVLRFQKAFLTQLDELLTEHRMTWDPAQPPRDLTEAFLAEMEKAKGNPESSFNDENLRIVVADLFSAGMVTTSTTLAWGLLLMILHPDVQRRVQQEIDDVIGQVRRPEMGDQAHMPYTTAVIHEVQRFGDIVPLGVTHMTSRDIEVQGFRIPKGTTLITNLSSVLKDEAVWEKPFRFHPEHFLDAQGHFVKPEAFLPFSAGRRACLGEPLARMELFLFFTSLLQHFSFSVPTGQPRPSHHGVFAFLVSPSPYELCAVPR

human CYP2C19 = human CYP2C19 (Homo sapiens, UniProt P33261)
human CYP2C19, sequence (P33261 whole entry): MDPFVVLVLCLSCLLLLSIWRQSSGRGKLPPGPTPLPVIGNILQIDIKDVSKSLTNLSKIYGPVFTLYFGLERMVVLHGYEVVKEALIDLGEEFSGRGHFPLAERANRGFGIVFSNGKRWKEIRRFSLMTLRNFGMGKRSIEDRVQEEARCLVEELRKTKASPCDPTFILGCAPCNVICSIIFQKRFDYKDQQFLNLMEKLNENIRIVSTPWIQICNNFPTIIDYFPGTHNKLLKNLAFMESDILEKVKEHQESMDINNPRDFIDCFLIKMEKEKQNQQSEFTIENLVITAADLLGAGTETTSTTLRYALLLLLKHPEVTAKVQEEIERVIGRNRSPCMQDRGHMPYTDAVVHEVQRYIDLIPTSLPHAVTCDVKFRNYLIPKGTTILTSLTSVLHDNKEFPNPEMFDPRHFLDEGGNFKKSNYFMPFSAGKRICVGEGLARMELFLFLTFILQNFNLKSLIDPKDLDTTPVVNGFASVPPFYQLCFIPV

[2] = in vivo; cited from earlier work

CYP3A4, sequence (P08684 whole entry): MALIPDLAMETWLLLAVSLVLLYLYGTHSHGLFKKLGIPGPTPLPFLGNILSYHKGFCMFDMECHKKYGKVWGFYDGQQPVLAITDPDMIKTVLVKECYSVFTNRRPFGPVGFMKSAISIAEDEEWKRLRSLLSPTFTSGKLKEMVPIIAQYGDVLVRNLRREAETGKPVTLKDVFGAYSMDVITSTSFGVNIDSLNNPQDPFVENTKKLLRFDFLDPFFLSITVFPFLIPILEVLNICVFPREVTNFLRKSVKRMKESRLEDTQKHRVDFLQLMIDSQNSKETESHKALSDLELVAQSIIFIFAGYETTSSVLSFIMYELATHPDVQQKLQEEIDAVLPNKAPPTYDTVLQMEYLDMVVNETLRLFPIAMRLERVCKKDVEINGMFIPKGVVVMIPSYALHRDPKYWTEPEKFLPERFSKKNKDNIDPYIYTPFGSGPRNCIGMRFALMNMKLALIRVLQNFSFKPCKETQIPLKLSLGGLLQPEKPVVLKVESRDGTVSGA
human CYP2C9, sequence (P11712 whole entry): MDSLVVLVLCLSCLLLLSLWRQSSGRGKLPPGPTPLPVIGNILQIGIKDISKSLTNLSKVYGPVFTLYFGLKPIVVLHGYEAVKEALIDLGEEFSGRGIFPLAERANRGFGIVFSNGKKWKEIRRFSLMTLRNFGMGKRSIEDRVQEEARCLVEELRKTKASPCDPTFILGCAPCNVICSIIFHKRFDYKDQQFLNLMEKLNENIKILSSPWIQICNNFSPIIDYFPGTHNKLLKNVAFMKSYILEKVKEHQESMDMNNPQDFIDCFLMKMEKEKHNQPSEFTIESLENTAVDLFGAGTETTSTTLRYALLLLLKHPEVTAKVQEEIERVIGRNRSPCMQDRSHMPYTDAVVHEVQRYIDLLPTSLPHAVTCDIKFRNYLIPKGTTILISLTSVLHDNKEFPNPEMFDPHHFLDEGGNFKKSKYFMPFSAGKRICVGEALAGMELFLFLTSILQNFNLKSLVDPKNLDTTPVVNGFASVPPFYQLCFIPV

SMILES	CYP2C9 IC50 (human CYP2C9)	pIC50 (CYP3A4)	CYP1A2 IC50 (human CYP1A2)	Luciferase IC50 [1]	pIC50 (human CYP2D6)	CYP2C19 IC50 (human CYP2C19)	Luciferase IC50 (half-maximal inhibitory concentration) [1]	Cmax (maximum plasma concentration) [2] [ng/mL]
C=CCN1C[C@H](C(=O)N(CCCN(C)C)C(=O)NCC)C[C@@H]2c3cccc4[nH]cc(c34)C[C@H]21 [Cabergoline]	Inactive	5.99	Inactive	Inactive	5.83	Inactive	–	–
COC(=O)[C@@H]1[C@H]2C[C@H]3c4[nH]c5ccccc5c4CCN3C[C@@H]2CC[C@@H]1O [Yohimbine, reference compound]	–	–	–	–	–	–	Inactive	75
